In patent US9284283B2, “Macrocyclic compounds for modulating IL-17” (ENSEMBLE THERAPEUTICS CORPORATION, priority 2012, dated 2016) one finds IC50 data, which are given here for 35 compounds.

One assay deals with T1, recombinant human IL17a (binding to its receptor IL17R) (Homo sapiens, UniProt Q16552).
T1 construct: purchased R&D Systems 317-ILB (IL17a); 177-IR (IL17R/Fc)
T1 sequence (Q16552 20-155 limits assumed): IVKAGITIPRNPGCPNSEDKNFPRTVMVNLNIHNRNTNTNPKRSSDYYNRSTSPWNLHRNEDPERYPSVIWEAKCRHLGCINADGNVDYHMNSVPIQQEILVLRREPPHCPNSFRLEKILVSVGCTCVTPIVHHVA
Put plainly: IL-17 competition ELISA I (IL17a coated, IL17R/Fc binding). On the procedure: ELISA I: The ability of the compounds to block binding of IL17a to its receptor, IL17R, was analyzed in a competition ELISA format. High binding 96-well plates (Costar #9018) were coated with 20 nM of recombinant human IL17a (R&D Systems #317-ILB) in PBS (0.64 μg/mL), 100 μL/well, for 30 min at 37′C followed by 5 min at 4′C. Plates were then washed in PBST (PBS/0.05% Tween-20) on a plate washer, (Biotech EL-450) blocked with protein-free blocking buffer (Thermo Scientific #37573) in 250 μL/well for 30 min on shaker at room temperature, and then washed again. Compound dilutions prepared in PBST were added into the wells in duplicates followed by the addition of IL17R/Fc (R&D Systems #177-IR) at a final concentration of 12 nM. Plates were then incubated for 30 min at room temperature on the shaker. Wells with no compound served as a positive “no competitor” control, while wells with no IL17R/Fc and no compound served as a blank negative control. After an additional PBST wash, 50 ng/mL HRP-conjugated goat anti-human Fc IgG (KPL #04-10-20) was added to the plate for 30 min at room temperature, followed by PBST wash and addition of SureBlue™ TMB (KPL #52-00-03). After the sufficient color development, the reaction was fixed by the addition of 100 μL/well 0.5 N HCl and absorbance was measured at 450 nm on Biotek plate reader.
Data were processed using BioAssay Enterprise v10.1.4 (CambridgeSoft) software. Linear OD λ450 were plotted against log concentration (x) and fitted to a 4-parameter logistic equation. IC50 was calculated using positive ‘no competitor’ control data as an upper limit and blank control as a lower limit in each assay.
As to `O=C1CNC(=O)[C@@H](Cc2ccc(NC(=O)[C@H](Cc3ccccc3Cl)NC(=O)Cc3cccc(O)c3)cc2)NC(=O)CC2(CCCC2)CC(=O)NCCCCCN1` [Compound 217], the IC50 (in general, the concentration that gives 50% inhibition) is under 100 nM. Regarding `O=C1CNC(=O)[C@@H](Cc2ccc(NC(=O)[C@H](Cc3ccccc3Cl)NC(=O)c3ccc(CO)cc3)cc2)NC(=O)CC2(CCCC2)CC(=O)NCCCCCN1` [Compound 219], the IC50 fell in the range of 100 to 1000 nM. On to `O=C1CNC(=O)[C@@H](Cc2ccc(NC(=O)[C@H](Cc3ccccc3Cl)NC(=O)C3CCOCC3)cc2)NC(=O)CC2(CCCC2)CC(=O)NCCCCCN1` [Compound 220], for which the IC50 was 100 to 1000 nM. For the compound `O=C1CNC(=O)[C@@H](Cc2ccc(NC(=O)[C@H](Cc3ccsc3)NC(=O)Cc3ccccc3)cc2)NC(=O)CC2(CCCC2)CC(=O)NCCCCCN1` [Compound 229], the IC50 is under 100 nM. For the compound `COCC(=O)N[C@@H](Cc1ccccc1Cl)C(=O)Nc1ccc(C[C@H]2NC(=O)CC3(CCCC3)CC(=O)NCCCCCNC(=O)CNC2=O)cc1` [Compound 234], the IC50 fell in the range of 100 to 1000 nM. Turning to `O=C1CNC(=O)[C@@H](Cc2ccc(NC(=O)[C@H](Cc3ccccc3Cl)NC(=O)c3ncco3)cc2)NC(=O)CC2(CCCC2)CC(=O)NCCCCCN1` [Compound 235], the IC50 lay in the range of 100 to 1000 nM.

For the compound `O=C1CNC(=O)[C@@H](Cc2ccc(NC(=O)[C@H](Cc3ccccc3)NC(=O)Cc3ccccc3)cc2)NC(=O)CC2(CCCC2)CC(=O)NCCCCCN1` [Compound 237], the IC50 is under 100 nM. Regarding `CN(C(=O)Cc1ccccc1)[C@@H](Cc1ccccc1)C(=O)Nc1ccc(C[C@H]2NC(=O)CC3(CCCC3)CC(=O)NCCCCCNC(=O)CNC2=O)cc1` [Compound 238], the IC50 lay in the range of 1000 to 10000 nM.

With `O=C1CNC(=O)C(Cc2ccc(NC(=O)C(Cc3cccc(Cl)c3)NC(=O)Cc3ccccc3)cc2)NC(=O)CC2(CCCC2)CC(=O)NCCCCCN1` (centres unmarked) [Compound 239], the IC50 was under 100 nM. Turning to `O=C1CNC(=O)[C@@H](Cc2ccc(NC(=O)[C@H](Cc3ccc(Cl)cc3)NC(=O)Cc3ccccc3)cc2)NC(=O)CC2(CCCC2)CC(=O)NCCCCCN1` [Compound 240], the IC50 was under 100 nM. Regarding `O=C1CNC(=O)[C@@H](Cc2ccc(NC(=O)[C@H](Cc3ccc(Cl)c(Cl)c3)NC(=O)Cc3ccccc3)cc2)NC(=O)CC2(CCCC2)CC(=O)NCCCCCN1` [Compound 241], the IC50 was in the range of 100 to 1000 nM. On the same count and under the same terms, the same measure for `CC1(C)CC(=O)NCCCCCNC(=O)CNC(=O)[C@@H](Cc2ccc(NC(=O)[C@H](CC3CC3)NC(=O)Cc3ccccc3)cc2)NC(=O)C1` [Compound 245]: 1000 to 10000 nM. On to `CC1(C)CC(=O)NCCCCCNC(=O)CNC(=O)[C@@H](Cc2ccc(NC(=O)[C@H](CC3CCC3)NC(=O)Cc3ccccc3)cc2)NC(=O)C1` [Compound 247], for which the IC50 fell in the range of 100 to 1000 nM.

Take `COC(=O)[C@@H]1CCCCNC(=O)CNC(=O)[C@@H](Cc2ccc(NC(=O)[C@H](Cc3ccccc3Cl)NC(C)=O)cc2)NC(=O)CC2(CCCC2)CC(=O)N1` [Compound 248]: the IC50 was under 100 nM.

With `COC(=O)[C@@H]1CCCCNC(=O)CNC(=O)[C@@H](Cc2ccc(NC(=O)[C@H](Cc3ccccc3Cl)NC(=O)Cc3ccc(O)cc3)cc2)NC(=O)CC2(CCCC2)CC(=O)N1` [Compound 249], the IC50 was under 100 nM.

Consider `COC(=O)[C@@H]1CCCCNC(=O)CNC(=O)[C@@H](Cc2ccc(NC(=O)[C@H](Cc3ccccc3Cl)NC(=O)c3cccnc3)cc2)NC(=O)CC2(CCCC2)CC(=O)N1` [Compound 250], for which the IC50 is under 100 nM. As to `CC(=O)N[C@H](C(=O)Nc1ccc(C[C@H]2NC(=O)CC(C)(C)CC(=O)NCCCCCNC(=O)CNC2=O)cc1)C1CCCCC1` [Compound 252], the IC50 was 1000 to 10000 nM. As to `CC1(C)CC(=O)NCCCCCNC(=O)CNC(=O)[C@@H](Cc2ccc(NC(=O)[C@H](Cc3cccs3)NC(=O)Cc3ccccc3)cc2)NC(=O)C1` [Compound 255], the IC50 fell in the range of 1000 to 10000 nM.

As for `CC(=O)N[C@@H](Cc1cccs1)C(=O)Nc1ccc(C[C@H]2NC(=O)CC(C)(C)CC(=O)NCCCCCNC(=O)CNC2=O)cc1` [Compound 256], the IC50 is over 10000 nM. On to `CC1(C)CC(=O)NCCCCCNC(=O)CNC(=O)[C@@H](Cc2ccc(NC(=O)[C@H](Cc3cccs3)NC(=O)Cc3ccc(O)cc3)cc2)NC(=O)C1` [Compound 257], for which the IC50 lay in the range of 100 to 1000 nM. For `CC1(C)CC(=O)NCCCCCNC(=O)CNC(=O)[C@@H](Cc2ccc(NC(=O)[C@H](Cc3cccs3)NC(=O)c3cccnc3)cc2)NC(=O)C1` [Compound 258], the IC50 was 1000 to 10000 nM.

Regarding `O=C1CC2(CCCC2)CC(=O)N[C@H](Cc2ccc(NC(=O)[C@H](Cc3ccccc3Cl)NC(=O)Cc3ccc(O)cc3)cc2)C(=O)N[C@H](Cc2ccccc2)C(=O)NCCCCCN1` [Compound 262], the IC50 is under 100 nM. Still for that read-out and setting: the same measure for `O=C1CNC(=O)[C@@H](Cc2ccc(NC(=O)[C@H](Cc3ccccc3Cl)NC(=O)Cc3ccc(O)cc3)cc2)NC(=O)CC2(CCCC2)CC(=O)N[C@H](C(=O)O)CCCCN1` [Compound 265]: under 100 nM; for `O=C1CNC(=O)[C@@H](Cc2ccc(NC(=O)[C@H](Cc3ccccc3Cl)NS(=O)(=O)c3ccccc3)cc2)NC(=O)CC2(CCCC2)CC(=O)NCCCCCN1` [Compound 271]: 1000 to 10000 nM; for `O=C1CNC(=O)[C@@H](Cc2ccc(NC(=O)[C@H](Cc3ccccc3Cl)NS(=O)(=O)Cc3ccccc3)cc2)NC(=O)CC2(CCCC2)CC(=O)NCCCCCN1` [Compound 272]: 100 to 1000 nM. `O=C1CNC(=O)[C@@H](Cc2ccc(NC(=O)[C@H](Cc3ccccc3Cl)NC(=O)CC3CCOCC3)cc2)NC(=O)CC2(CCCC2)CC(=O)NCCCCCN1` [Compound 275]: the IC50 fell in the range of 100 to 1000 nM. For `O=C1CNC(=O)[C@@H](Cc2ccc(NC(=O)[C@H](Cc3ccccc3Cl)NC(=O)c3ccc(O)c(F)c3)cc2)NC(=O)CC2(CCCC2)CC(=O)NCCCCCN1` [Compound 277], the IC50 lay in the range of 100 to 1000 nM. Take `O=C1CNC(=O)[C@@H](Cc2ccc(NC(=O)[C@H](Cc3ccccc3Cl)NC(=O)c3ccc(F)cc3O)cc2)NC(=O)CC2(CCCC2)CC(=O)NCCCCCN1` [Compound 278]: the IC50 was in the range of 1000 to 10000 nM. Turning to `O=C1CNC(=O)[C@@H](Cc2ccc(NC(=O)[C@H](Cc3ccccc3Cl)NC(=O)Cc3ccc(O)cc3)cc2)NC(=O)CC2(CCCC2)CC(=O)NCCCCCN1` [Compound 279], the IC50 is under 100 nM. As for `CN1CCCCCNC(=O)CC2(CCCC2)CC(=O)N[C@H](Cc2ccc(NC(=O)[C@H](Cc3ccccc3Cl)NC(=O)Cc3ccccc3)cc2)C(=O)NCC1=O` [Compound 281], the IC50 was under 100 nM. On the same count and under the same terms, the same measure for `COC(=O)[C@@H]1CCCCNC(=O)CNC(=O)[C@@H](Cc2ccc(NC(=O)[C@@H](NC(=O)Cc3ccccc3)C3CCCCC3)cc2)NC(=O)CC2(CCCC2)CC(=O)N1` [Compound 282]: under 100 nM.

The next assay has as its target T2, biotinylated human IL-17 (binding to IL17R/Fc) (Homo sapiens, UniProt Q16552).
T2 construct: purchased R&D Systems 317-ILB (IL-17, biotinylated); 177-IR (IL17R/Fc)
T2 sequence (Q16552 20-155 limits assumed): T1 sequence (Q16552 20-155 limits assumed)
Put plainly: IL-17 competition ELISA II (captured IL17R/Fc, biotinylated IL-17). An outline of the steps: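 Competition read-out: absorbance at 450 nm after streptavidin-HRP/TMB detection, fitted to a 4-parameter logistic model bounded by no-competitor and blank wells to give IC50. Compound was serially diluted 5-fold from 1 μM alongside 20 nM (stock) biotinylated IL-17 on IL17R/Fc (10 nM) captured via goat anti-human IgG, 30 min at room temperature.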
Turning to `CN1CCCCCOC(=O)CC2(CCCC2)CC(=O)N[C@H](Cc2ccc(NC(=O)[C@H](Cc3ccccc3Cl)NC(=O)C(F)(F)c3ccccc3)cc2)C(=O)NCC1=O` [Compound 678], the IC50 was under 100 nM. Take `CN1CCCCCOC(=O)CC2(CCCC2)CC(=O)N[C@H](Cc2ccc(NC(=O)[C@@H](NC(=O)C(F)(F)c3ccccc3)C3CCCCC3)cc2)C(=O)NCC1=O` [Compound 679]: the IC50 is under 100 nM. On the same count and under the same terms, the same measure for `CCC(F)(F)C(=O)NC(C(=O)Nc1ccc(CC2NC(=O)CC3(CCCC3)CC(=O)OCCCCCN(C)C(=O)CNC2=O)cc1)C1CCCCC1` (centres unmarked) [Compound 680]: 100 to 1000 nM; for `CC(=O)NC(C(=O)Nc1ccc(CC2NC(=O)CC3(CCCC3)CC(=O)OCCCCCN(C)C(=O)CNC2=O)cc1)C1CCCCC1` (centres unmarked) [Compound 681]: under 100 nM.
